Tests used:
TTK = target: T1, TTK (Homo sapiens, UniProt P33981); experiment: Immunoblot of TTK in naive MV4-11 cells; assay type: cell-based; parameters: endogenous in cells; host or cells: naive MV4-11; conditions: 6 h
T1 sequence (P33981 1-857): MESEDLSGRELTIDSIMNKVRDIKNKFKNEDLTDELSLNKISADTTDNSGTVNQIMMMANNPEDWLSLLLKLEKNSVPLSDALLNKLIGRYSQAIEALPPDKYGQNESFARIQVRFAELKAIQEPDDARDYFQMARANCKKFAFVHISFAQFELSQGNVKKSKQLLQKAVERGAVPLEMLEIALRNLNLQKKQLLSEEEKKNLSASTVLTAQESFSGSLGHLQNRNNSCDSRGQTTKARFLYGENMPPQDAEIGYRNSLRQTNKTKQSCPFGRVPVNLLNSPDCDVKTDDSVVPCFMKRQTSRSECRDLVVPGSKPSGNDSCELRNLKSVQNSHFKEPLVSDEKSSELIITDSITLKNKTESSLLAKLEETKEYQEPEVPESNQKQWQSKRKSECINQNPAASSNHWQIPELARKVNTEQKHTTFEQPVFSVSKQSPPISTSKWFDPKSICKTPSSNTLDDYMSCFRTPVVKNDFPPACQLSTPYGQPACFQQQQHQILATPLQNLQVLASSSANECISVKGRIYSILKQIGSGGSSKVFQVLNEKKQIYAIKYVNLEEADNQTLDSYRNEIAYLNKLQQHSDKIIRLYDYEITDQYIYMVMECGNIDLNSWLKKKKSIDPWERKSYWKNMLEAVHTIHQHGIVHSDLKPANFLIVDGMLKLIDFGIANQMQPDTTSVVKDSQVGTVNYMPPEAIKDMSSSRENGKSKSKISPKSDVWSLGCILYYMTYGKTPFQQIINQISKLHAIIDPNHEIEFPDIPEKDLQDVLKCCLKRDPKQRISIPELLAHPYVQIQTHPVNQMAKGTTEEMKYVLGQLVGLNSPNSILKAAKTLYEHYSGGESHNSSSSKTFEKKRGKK
Experimental: The cells were treated with compounds or vehicle for indicated time points and lysed in RIPA lysis buffer (50 mM HEPES pH 7.9, 140 mM NaCl, 1 mM EDTA, 1% Triton X-100, 0.1% SDS, 0.1% sodium deoxycholate) containing protease and phosphatase inhibitors (Sigma) for 20 min at 4 °C. Cell lysates were cleared by centrifugation, and protein concentration was determined with bicinchoninic acid assay. Equal amounts of protein per sample were separated by Bis-Tris-PAGE and transferred to PVDF membranes (Millipore). The membranes were blocked with 5% (w/v) nonfat dry milk in TBS-T [20 mM Tris–HCl, pH 7.5, 150 mM NaCl, 0.1% (v/v) Tween-20] for 1 h at room temperature and incubated with primary antibody at 4 °C overnight. Visualization was carried out using horseradish peroxidase (HRP)-labeled secondary antibodies and detected using a chemiluminescent HRP substrate (Millipore) in LAS3000 or LAS4000 mini (Fujifilm). Vinculin, GAPDH, or B-actin were used as a loading control. The loading control was probed along with the target antibody by cutting the membrane. For targets with similar molecular weights, the samples were run in duplicate and probed with their respective loading controls, although only one control was shown in the figure for all targets. The signal was quantified using ImageJ or Image Studio Lite against the corresponding loading controls. Antibodies used in this study were as follows: Aurora A/AIK (Cell Signaling Technology, 3092), Aurora B (Bethyl Laboratories, A300–431A), TTK (Santa Cruz Biotechnology, sc-56968), GAPDH (Cell Signaling Technology, 2118), B-Actin (Sigma, A5441), and Vinculin (Sigma, V9131).
α GAPDH α Vinculin α B-Actin
Figure S2: Cellular degradation studies of SF1-based compounds. […]
GAPDH was used as a loading control. (E-
Immunoblots of TTK and AURKB. Naive MV4-11 cells were treated with indicated concentration of 44 or 47 G)
(E), 18 (F), and 14 or 20 (G) for 6 h and compared with vehicle treated cells. […]
All HiBiT data are represented as a mean ±s.d. from n=2 replicates. […]

[1] = Plasma stability (LC-ESI-MS); assay type: in vitro ADME; conditions: 37 °C
Experimental: (§1) Lastly, to gain a first insight into the stability of the synthesized compounds in a biological system, the stability of one of the degraders was examined at two different pH values and in human plasma (Figures S8 and S9). We chose one of the best degraders of the SF1 series, 20 as it also resembled the best degrader from azareversine series 19 in terms of the linker and E3-binding moiety. All experiments were carried out at 37 °C, and aliquots were analyzed using LC-ESI-MS at predetermined time points. […] We concluded from the stability profile of 20 that it is sufficient for further testing.
First, 250 µg of conjugate 20 were diluted in 5 µL DMSO and the mixture was added to 0.5 mL of human plasma. The mixture was incubated at 37 °C. 50 µL of aliquot was removed at predetermined time points and quenched with 150 µL ice-cold acetonitrile (+0.1% formic acid). Then, the mixture was centrifuged at 10,000 rpm for 10 min. Then, 50 µL of supernatant was added to 50 µL of ultrapure water (+0.1% formic acid) and analyzed by LC-MS. Results are presented as the mean ± SD of three independent experiments. […]

[2] = Stability in buffer solutions (LC-ESI-MS); assay type: physicochemical; conditions: for residual concentration (% of initial concentration): after 24 h
Experimental: as §1, with “testing. […]” for “testing.”
Stability in Buffer Solutions
The stability of the conjugate was examined by performing chemostability experiments at two different buffer solutions (pH = 5.2 and 7.4). Conjugate 20 was dissolved in 5 µL DMSO and transferred to 0.5 mL of the relevant buffer solution (acetate or phosphate aquatic buffer solutions). The mixture was then incubated at 37 °C, samples were collected at predetermined time points (0, 1, 2, 3, 4, 5, 24 and 48 h), and analyzed by LC-MS.
Results are presented as the mean ± of SD after repeating the experiment three times.
Figure S9: ESI-LCMS charts detected at 254 nm of conjugate 20 at pΗ5.2 and selected time intervals

| relative TTK level (immunoblot quantification, vehicle = 1.00) (TTK; 10 µM) | half-life (t1/2) in human plasma [1] [h] | residual concentration (% of initial concentration) ([2]; pH 5.2, 37 °C) [%] | stability at both pH values ([2]; pH 5.2 and 7.4, 37 °C, for 8 h) | residual concentration (% of initial concentration) ([2]; pH 7.4, 37 °C) [%] | relative TTK level (immunoblot quantification, vehicle = 1.00) (TTK; 0.01 µM) | relative TTK level (immunoblot quantification, vehicle = 1.00) (TTK; 1 µM) | Structure (SMILES) |
| --- | --- | --- | --- | --- | --- | --- | --- |
| 1.16 | – | – | – | – | – | – | CC(C)S(=O)(=O)c1ccccc1Nc1nc(Nc2ccc(N3CCN(C(=O)CCCC(=O)Nc4cccc5c4C(=O)N(C4CCC(=O)NC4=O)C5=O)CC3)cc2)nc2[nH]cnc12 (centres unmarked) [Compound 14] |
| – | 4.4 | 56 | stable | 11.2 | – | – | CC(C)S(=O)(=O)c1ccccc1Nc1nc(Nc2ccc(N3CCN(C(=O)CNC(=O)CCCC(=O)Nc4cccc5c4C(=O)N(C4CCC(=O)NC4=O)C5=O)CC3)cc2)nc2[nH]cnc12 (centres unmarked) [Compound 20] |
| 0.67 | – | – | – | – | 1.00 | 1.00 | Cc1ncsc1-c1ccc(CNC(=O)[C@@H]2C[C@@H](O)CN2C(=O)[C@@H](NC(=O)CCCC(=O)N2CCN(c3ccc(Nc4nc(Nc5ccccc5S(=O)(=O)C(C)C)c5nc[nH]c5n4)cc3)CC2)C(C)(C)C)cc1 [Compound 44] |

From PMC11555526, “Development of 2-Aminoadenine-Based Proteolysis-Targeting Chimeras (PROTACs) as Novel Potent Degraders of Monopolar Spindle 1 and Aurora Kinases” (ACS Pharmacology & Translational Science, 2024)
